Laboratory results: patent US11440887B2, “Substituted 1,2,3,4-tetrahydroquinolines as inhibitors of repair enzyme 8-oxoguanine deoxyribonucleic acid glycosylase activity” (The Board of Trustees of the Leland Stanford Junior …, priority 2017, dated 2022)
Where “and” joins values, the source holds several entries; their conditions need not be identical. Equal values may be shown once.

Tests used:
OGG1 [1] = target: T1, OGG1 (Homo sapiens (Human), UniProt O15527); assay: Km and Kcat study (Michaelis-Menten / Lineweaver-Burk) of OGG1 with inhibitor; type: biochemical
T1 sequence (O15527 whole entry): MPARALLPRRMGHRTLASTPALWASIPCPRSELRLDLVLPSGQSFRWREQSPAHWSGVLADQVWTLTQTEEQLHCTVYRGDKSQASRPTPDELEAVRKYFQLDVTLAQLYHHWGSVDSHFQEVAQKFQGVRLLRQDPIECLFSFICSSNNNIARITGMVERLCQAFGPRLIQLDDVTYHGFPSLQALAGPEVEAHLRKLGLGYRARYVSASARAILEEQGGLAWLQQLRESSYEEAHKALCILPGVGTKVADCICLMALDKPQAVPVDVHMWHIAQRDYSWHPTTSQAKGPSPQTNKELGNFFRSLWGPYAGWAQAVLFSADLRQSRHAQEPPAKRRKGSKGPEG
Protocol: Methods: For Michaelis-Menten curves: Inhibitor 41 and hOGG1 (100 nM) were incubated in NEBuffer 4 (1×) with BSA (1×) at 37° C. (15 min) in 100 μL reaction volumes in a black 96-well plate. After that, OGR1 (0.8-10 μM) was added to the reaction mixture. Fluorescence at 460 nm was measured on a Thermo Fluoroskan Ascent FL fluorescence plate reader (Aex=355 nm). The initial rate (12 min) was calculated. Lineweaver-Burk plot was leaded from the Michaelis-Menten curves. Km and Vmax were calculated from the equation. Kcat was calculated from Kcat=Vmax/[enzyme].

NUDT16 = NUDT16 (Homo sapiens (Human), UniProt Q96DE0); assay: NUDT16 assay; type: biochemical; details: 20 μM
Sequence of NUDT16 (Q96DE0 whole entry, species assumed): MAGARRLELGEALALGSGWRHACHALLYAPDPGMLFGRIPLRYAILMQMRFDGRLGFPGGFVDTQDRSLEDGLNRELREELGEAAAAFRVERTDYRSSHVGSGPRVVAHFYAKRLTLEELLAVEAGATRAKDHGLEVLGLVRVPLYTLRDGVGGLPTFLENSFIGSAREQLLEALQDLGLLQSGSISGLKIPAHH
Protocol: After 1 h incubation at 37° C., 5 μL of this reaction solution was added to 20 μL Kinase-Glo Luminescent Kinase Assay reaction solution (prepared as instructed for the ATP determination kit) in a 96 well plate. The bioluminescence signal was recorded at 1 min intervals over 10 min.

HEK293T cells = assay: MTT assay, HEK293T; type: cell-based, human; details: 24 h
Protocol: Methods: HEK293T cells (concentration of 1.6×10^4 cells per well) and HeLa cells (concentration of 1.2×10^4 cells per well) were seeded to 96-well plate in supplemented DMEM culture medium (10% FBS, 100 U Pen./Strep.) and incubated for 30 h (HEK293T cells) and 16 h (HeLa cells) at +37° C. and 5% CO2. […] After the incubation period, 10 μL of the MTT labeling reagent (final concentration 0.5 mg/ml) was added to each well, and incubated at +37° C. and 5%. 100 μl of the solubilization solution was added into each well, and incubated for 20 h at +37° C. and 5%. Absorbance of the samples was measured by using a microplate reader Tecan Infinite M1000 at 550, and 650 nm. […] In the rest of the samples (10 μM, 1 μM, 100 nM, and 10 nM) concentration of DMSO was at the level of 1%. The controls were prepared: Ctrl—cells cultured only in the supplemented DMEM; Ctrl 5% DMSO—cells cultured in 5% DMSO in the supplemented DMEM; Ctrl 1% DMSO—cells cultured in 1% DMSO in the supplemented DMEM.

[2] = Half-life / pharmacokinetics after intraperitoneal dosing; type: in vivo; details: mice, IP, 3 mg/kg
Protocol: Methods: Each OGG1 inhibitor was dosed by intraperitoneal (IP) and oral (PO) routes of administration at a target dose of 3 mg/kg. Blood samples were collected up to 24 hours post-dose, and blood concentrations of the test articles were determined by LC-MS/MS. Pharmacokinetic parameters were determined using Phoenix WinNonlin (v8.0) software

OGG1 [3] = target: T1, OGG1; assay: Surface plasmon resonance (SPR) binding to OGG1
Protocol: Additional embodiments utilize surface plasmon resonance (SPR) to investigate the binding of various compounds to OGG1. […] Specifically, FIG. 8A illustrates a sensorgram plot of binding response versus time, while FIG. 8B illustrates binding response versus concentration of an inhibitor. Further, FIG. 8C provides Ka, Kd and KD values that are calculated for compounds of various embodiments. These figures indicate that certain embodiments bind strongly to OGG1.

Structure (SMILES): NC(=O)c1cccc(-c2ccc(S(=O)(=O)Nc3ccc4c(c3)N(C(=O)C3CC3)CCC4)cc2)c1 [Compound 41]
- Kcat (OGG1 [1]; OGG1 with 200 nM 41): 0.057 s⁻¹
- Kcat/Km (OGG1 [1]; OGG1 with 200 nM 41): 0.0070 s^−1μM^−1
- Km (OGG1 [1]; OGG1 with 200 nM 41): 8.2 µM
- Kcat (OGG1 [1]; OGG1 with 2 μM 41): 0.040 s⁻¹
- Kcat/Km (OGG1 [1]; OGG1 with 2 μM 41): 0.022 s^−1μM^−1
- Km (OGG1 [1]; OGG1 with 2 μM 41): 1.8 µM
- NUDT16 enzyme activity in the presence of the inhibitor (NUDT16): ~70%
- cytotoxicity by MTT assay (HEK293T cells; 10 nM to 10 μM): little or no cytotoxicity
- toxicity by MTT assay (HEK293T cells; 100 μM): 30-50%
- average exposure, dose-normalized AUClast [2]: 543±281 hr*kg*ng/m L/m g
- maximum blood concentrations (average) [2]: 1210 ± 206 ng/mL
- time of maximum blood concentrations post dosing [2]: 15 min
- Half-life Mean ([2]; mean of three replicates, listed as SU0268): approximately 4 hr and 4.02±0.709 hr and 4.02 hr
- Half-life R1 ([2]; replicate 1): 4.84 h
- Half-life R3 ([2]; replicate 3): 3.60 h
- binding to OGG1 by SPR (OGG1 [3]): binds strongly
